The values that follow come from PMC12087874, “Biaryl Phosphates and Phosphonates as Selective Inhibitors of the Transcription Factor STAT4” (Angewandte Chemie (International Ed. in English), 2025).

SMILES strings stand for the structures.

For the experiment, the target named is T1, STAT6 (Homo sapiens, UniProt P42226).
T1 sequence (P42226 1-847): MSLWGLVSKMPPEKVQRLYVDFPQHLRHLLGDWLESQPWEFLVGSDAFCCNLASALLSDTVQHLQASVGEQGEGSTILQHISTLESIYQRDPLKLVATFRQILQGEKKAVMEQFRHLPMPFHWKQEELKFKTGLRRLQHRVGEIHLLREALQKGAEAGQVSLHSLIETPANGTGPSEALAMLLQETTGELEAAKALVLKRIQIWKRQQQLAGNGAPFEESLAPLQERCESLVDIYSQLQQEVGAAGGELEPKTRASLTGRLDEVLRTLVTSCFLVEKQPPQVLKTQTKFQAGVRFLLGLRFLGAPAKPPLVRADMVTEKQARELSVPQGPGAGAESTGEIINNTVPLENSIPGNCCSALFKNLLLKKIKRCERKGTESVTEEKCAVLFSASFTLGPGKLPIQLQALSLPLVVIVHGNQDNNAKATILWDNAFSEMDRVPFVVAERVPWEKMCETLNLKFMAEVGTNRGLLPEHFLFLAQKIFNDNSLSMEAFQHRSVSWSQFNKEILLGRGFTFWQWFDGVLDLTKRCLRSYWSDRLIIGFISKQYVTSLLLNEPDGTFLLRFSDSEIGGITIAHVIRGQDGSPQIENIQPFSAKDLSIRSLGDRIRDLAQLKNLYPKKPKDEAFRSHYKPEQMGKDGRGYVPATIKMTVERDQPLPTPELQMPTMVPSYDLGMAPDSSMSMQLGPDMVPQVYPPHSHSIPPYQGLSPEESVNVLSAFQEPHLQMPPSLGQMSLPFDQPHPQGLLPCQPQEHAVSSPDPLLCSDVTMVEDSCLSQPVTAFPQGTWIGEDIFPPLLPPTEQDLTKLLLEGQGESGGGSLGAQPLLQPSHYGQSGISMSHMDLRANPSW
The experiment can be described thus: Competitive fluorescence polarization (FP) assay, STAT6 SH2 domain. The format is binding. The conditions noted are these: for Ki: Ki derived from IC50; for IC50: mean ± SD, n = 3. On the procedure: Fluorescence polarization assays
Competitive fluorescence polarization assays, which measure the abilities of test compounds (dissolved in DMSO) to displace a fluorescent-labeled peptide from the SH2 domain of a STAT protein, were carried out essentially as described. Proteins were used at the following final concentrations: 23 nM or 28 nM for STAT4; between 56 nM and 91 nM for STAT1; 107 nM or 110 nM for STAT3; between 131 nM and 177 nM for STAT5a; between 62 nM and 85 nM for STAT5b; and 101 nM or 106 nM for STAT6. These concentrations represent the approximate […]
dissociation constant for peptide binding of the respective protein batches used in the assays.
The following peptides were used: 5-carboxyfluorescein-GpYLPQNID-OH for STAT4; 5-carboxyfluorescein-GpYDKPHVL for STAT1; 5-carboxyfluorescein-GpYLPQTV-NH2 for STAT3; 5-carboxyfluorescein-GpYLVLDKW for STAT5a/b, and 5-carboxyfluorescein- […]
Gp[…]-OH for STAT6. All peptides were used at a final concentration of 10 nM. The buffer consisted of 10 mM Tris (pH 8.0), 50 mM NaCl, 1 mM EDTA, 1 mM DTT, 0 .1 % Nonidet P-40 substitute, and 2 % DMSO. After incubation of protein and test compound for 1 h at room temperature, the fluorescent -labeled peptide was added. Samples were transferred to 384 - well microtiter plates and fluorescence polarization was read after an additional 60 min of incubation time. Measurements were performed in triplicate. Percent binding was calculated based on a logarithmic curve fit using OriginPro 8G software. IC 50 values were converted to Ki-values via the published equation[3] using the corresponding Excel spread sheet […]
https://websites.umich.edu/~shaomengwanglab/software/calc_ki/index.html .
Error bars represent standard deviations. Ligand efficiencies (LE) were calculated by the formula LE = -1,37 x log Ki / number of non-hydrogen atoms.[4] […]

`O=P(O)(O)Oc1ccc(-c2ccc3ccccc3c2)cc1` [Compound 6g]: the affinity, expressed as Ki, was 9.3 ± 1.1 µM and the concentration for half-maximal inhibition (IC50) came to 19 ± 2 µM.
As for `O=P(O)(O)Oc1ccc(-c2ccccc2)cc1F` [Compound 6h], the affinity corresponds to a Ki of 46 ± 3 µM and the IC50 came to 90 ± 7 µM.
`O=P(O)(O)C(F)(F)c1ccc(-c2ccc3ccccc3c2)cc1F` [Compound 8a] showed a Ki of 15 ± 2 µM and an IC50 of 30 ± 3 µM.
For the molecule `O=P(O)(O)Oc1ccc(-c2ccccc2)cc1` [Compound 1, para‐biphenyl phosphate], affinity was put at a Ki of 7.3 ± 0.4 µM and the concentration for half-maximal inhibition (IC50) amounted to 15 ± 1 µM.
The molecule `Cc1cc(-c2ccc(C(F)(F)P(=O)(O)O)c(F)c2)cs1` [Compound 8k] had an inhibition constant (Ki) of 13 ± 1 µM and a 50% inhibitory concentration (IC50) of 26 ± 2 µM.
In the case of `O=P(O)(O)Oc1ccc(-c2ccc3ccccc3c2)cc1F` [Compound 6m], the inhibition constant Ki was 29 ± 2 µM and the 50% inhibitory concentration (IC50) amounted to 57 ± 4 µM.
